Laboratory results published in patent US8158088B2, “Extractant compositions for co-extracting cesium and strontium, a method of separating cesium and strontium from an aqueous feed, and calixarene compounds” (Battelle Energy Alliance, LLC, priority 2008, dated 2012).
Where “and” joins values, the source holds several entries; their conditions need not be identical. Identical values can stand only once.

Experiments:
Assay type in all cases: physicochemical
[1] = Cesium distribution ratio (DCs), equilibrium batch contact of mixed extractant solvent with nitric acid feed; settings: for DCs: 1.5 HNO3
Text: The distribution of cesium and strontium between the first organic phase (the mixed extractant solvent including the dialkyloxycalix[4]arenebenzocrown-6 compound) and the first aqueous phase (aqueous feed) may be determined by conventional techniques. The distribution ratio for strontium (“DSr”) may be calculated as the ratio of organic phase activity to the aqueous phase activity at equilibrium. High values for the DSr indicate that the strontium is present predominantly in the organic phase while low values for the DSr indicate that the strontium is present predominantly in the aqueous phase. Similarly, the distribution ratio for cesium (“DCs”) may be calculated as the ratio of organic phase activity to the aqueous phase activity at equilibrium. High values for the DCs indicate that the cesium is present predominantly in the organic phase while low values for the DCs indicate that the cesium is present predominantly in the aqueous phase.
Distribution ratios (DM=[M]org/[M]aq) were measured by equilibrium batch contacts between the organic and aqueous phases at an organic-to-aqueous phase ratio (O/A) of unity (O/A=1). All distribution ratio measurements were conducted in a temperature controlled water bath at 25±1° C. The aqueous phase was of the appropriate HNO3 concentration, to which trace quantities (typically, less than 10^−7 M each) of the major radionuclides of interest (^137Cs, ^85Sr, ^154Eu, or ^241Am) were added. The organic and aqueous phases were contacted by vortex mixing for 1 minute. All batch contact experiments were performed at ambient temperature (from approximately 20° C. to approximately 25° C.) unless otherwise noted. Following extraction, the samples were centrifuged for 1 minute and the organic and aqueous phases separated by pipet or centrifugation. The distribution ratios (DSr, or DCs) were calculated as the ratio of the appropriate specific activities in the organic and aqueous phases as determined by γ-ray counting (gamma spectroscopy). The counting time was selected to provide less than approximately 1% statistical uncertainty.
(MC-8, MC-8B, MC-10, MC-10B, MC-12, or MC-12B), 0.075 M DtBuCH18C6, 0.75 M Cs-7SB modifier, and 0.003 M TOA in ISOPAR® L were evaluated for their respective abilities to simultaneously extract cesium and strontium from the aqueous feed simulant composition described in Table 2. The cesium and strontium distribution ratios of the mixed extraction solvents were compared to those of the FPEX I process solvent. The cesium extraction performance and strontium extraction performance of each of the mixed extractant solvents was determined using the batch contact flowsheet presented in FIG. 1, where “E1,” “E2,” and “E3” refer to three forward extraction acts: a first extraction act, a second extraction act, and a third extraction act, respectively, and “St1” and “St2” refer to two backward extraction acts: a first strip act and a second strip act, respectively. […] The aqueous feed 2 and the mixed extractant solvent 4 were combined in a vessel 6 to conduct the extraction. Two phases were formed during the extraction: the first organic phase and the first aqueous phase, with the cesium and strontium substantially distributed in the first organic phase.
The cesium and strontium distribution ratios for the mixed extractant solvents 4 were calculated for the first organic phase and are reported in Tables 3 and 4, respectively, as E1, along with the cesium and strontium distribution ratios for the FPEX I process solvent. The cesium and strontium were stripped from the first (and subsequent) organic phase to recover these radionuclides. For the strips or backward extractions, the first (and subsequent) organic phase was contacted with dilute acidic solution 8, which was 0.01 M HNO3. […]

[2] = Strontium distribution ratio (DSr), equilibrium batch contact of mixed extractant solvent with nitric acid feed; settings: for DSr: 1.5 HNO3
[3] = Solvent stability: cesium distribution ratios as a function of contact time with 1.5 M HNO3
Description: (§1) The stability of the mixed extractant solvents prepared using dialkyloxycalix[4]arenebenzocrown-6 compounds (MC-8, MC-8B, MC-10, MC-10B, MC-12, or MC-12B) relative to BOBCalixC6 in the FPEX I process solvent was determined. Samples were prepared using each of the dialkyloxycalix[4]arenebenzocrown-6 compounds and contacted with 1.5 M HNO3. The samples included 0.007 M of the respective dialkyloxycalix[4]arenebenzo-crown-6 compound (MC-8, MC-8B, MC-10, MC-10B, MC-12, or MC-12B), 0.075 M DtBuCH18C6, 0.75 M Cs-7SB modifier, and 0.003 M TOA in ISOPAR® L. The stability of the dialkyloxycalix[4]arene-benzocrown-6 based solvents was evaluated by measuring the cesium and strontium distribution ratios as a function of contact time. These cesium and strontium distribution ratios for the mixed extractant solvents are presented in Table 9 and Table 10, respectively, along with the cesium and strontium distribution ratios for the FPEX I process solvent. The symbol “-” is used in Tables 9 and 10 to indicate no data was collected.
(§2) This degradation is likely due to chemical attack or nitration of the BOBCalixC6 in the FPEX I process solvent. […] However, it is difficult to compare the relative extents of degradation. In order to compare the different extractants, the distribution ratio data presented in Tables 9 and 10 were normalized to the values obtained at t=0 days contact. The normalized cesium and strontium distribution ratios for the FPEX I process solvent and the mixed extractant solvents as a function of contact time are presented in FIGS. 2 and 3, respectively.

[4] = Solvent stability: strontium distribution ratios as a function of contact time with 1.5 M HNO3
Description: as §1, §2

[5] = Third phase formation on contact with nitric acid
[6] = [DtBuCH18C6]/[MC-10B] 50/10 mM, 1.5 M Cs-5SB
[7] = [DtBuCH18C6]/[MC-10B] 60/10 mM, 1.5 M Cs-5SB
[8] = [DtBuCH18C6]/[MC-10B] 60/15 mM, 1.5 M Cs-5SB
[9] = [DtBuCH18C6]/[MC-10B] 90/20 mM, 1.5 M Cs-5SB in ISOPAR L, feed 0.004 M cesium nitrate, 0.002 M strontium nitrate
[10] = first forward extraction, 1.5 M HNO3 feed simulant, 25 °C, 0.007 M calixarene, 0.075 M DtBuCH18C6, 0.75 M Cs-7SB, 0.003 M TOA in ISOPAR L
[11] = first strip with 0.01 M HNO3, 35 °C, 0.007 M calixarene solvent
[12] = second forward extraction, 1.5 M HNO3 feed, 25 °C, 0.007 M calixarene solvent
[13] = second strip with 0.01 M HNO3, 35 °C, 0.007 M calixarene solvent
[14] = third forward extraction, 1.5 M HNO3 feed, 25 °C, 0.007 M calixarene solvent
[15] = contact time 0 days with 1.5 M HNO3, 0.007 M calixarene, 0.075 M DtBuCH18C6, 0.75 M Cs-7SB, 0.003 M TOA in ISOPAR L
[16] = contact time 34 days with 1.5 M HNO3
[17] = contact time 70 days with 1.5 M HNO3
[18] = contact time 278 days with 1.5 M HNO3

Cesium distribution ratio as a function of contact time [3, 15]: 3.7 | Cesium distribution ratio as a function of contact time [3, 16]: 3.0 | Cesium distribution ratio as a function of contact time [3, 17]: 3.4 | Cesium distribution ratio as a function of contact time [3, 18]: 2.8 | Strontium distribution ratio as a function of contact time [4, 15]: 9.6 | Strontium distribution ratio as a function of contact time [4, 16]: 8.5 | Strontium distribution ratio as a function of contact time [4, 17]: 9.5 | Strontium distribution ratio as a function of contact time [4, 18]: 8.0 | third phase formation ([5]; varying MC-10B and DtBuCH18C6 concentrations, 1.5 M Cs-5SB in ISOPAR L, 1.5 HNO3): No third phase formation was observed
SMILES: CC(C)CCCC(C)CCOc1c2cccc1Cc1cccc3c1OCCOCCOc1ccccc1OCCOCCOc1c(cccc1Cc1cccc(c1OCCC(C)CCCC(C)C)C3)C2 (stereo not shown) [MC-10B, 1,3-alternate-25,27-di(3,7-dimethyloctyl-1-oxy)calix[4]arenebenzocrown-6]
DCs [1, 6]: 2.87 and 2.88 | DCs [1, 7]: 2.77 and 2.81 | DCs [1, 8]: 4.48 and 4.37 | DCs [1, 9]: 6.11 and 6.36 | Cesium distribution ratio, contact E1 [1, 10]: 3.7 | Cesium distribution ratio, contact St1 [1, 11]: 0.5 | Cesium distribution ratio, contact E2 [1, 12]: 1.9 | Cesium distribution ratio, contact St2 [1, 13]: 0.2 | Cesium distribution ratio, contact E3 [1, 14]: 1.5 | DSr [2, 6]: 4.03 and 4.11 | DSr [2, 7]: 4.83 and 4.90 | DSr [2, 8]: 4.73 and 4.69 | DSr [2, 9]: 6.90 and 6.94 | Strontium distribution ratio, contact E1 [2, 10]: 9.6 | Strontium distribution ratio, contact St1 [2, 11]: 0.06 | Strontium distribution ratio, contact E2 [2, 12]: 8.6 | Strontium distribution ratio, contact St2 [2, 13]: 0.01 | Strontium distribution ratio, contact E3 [2, 14]: 8.3 | third phase formation ([5]; up to 2 M HNO3, 0.007 M MC-10B, 0.075 M DtBuCH18C6, 0.75 M Cs-7SB in ISOPAR L): no formation of third phases was detected
